The target of one data set is T1, Myeloperoxidase (MPO) (Homo sapiens, UniProt P05164).
T1 construct: purchased Biodesign Int
T1 sequence (P05164 49-745): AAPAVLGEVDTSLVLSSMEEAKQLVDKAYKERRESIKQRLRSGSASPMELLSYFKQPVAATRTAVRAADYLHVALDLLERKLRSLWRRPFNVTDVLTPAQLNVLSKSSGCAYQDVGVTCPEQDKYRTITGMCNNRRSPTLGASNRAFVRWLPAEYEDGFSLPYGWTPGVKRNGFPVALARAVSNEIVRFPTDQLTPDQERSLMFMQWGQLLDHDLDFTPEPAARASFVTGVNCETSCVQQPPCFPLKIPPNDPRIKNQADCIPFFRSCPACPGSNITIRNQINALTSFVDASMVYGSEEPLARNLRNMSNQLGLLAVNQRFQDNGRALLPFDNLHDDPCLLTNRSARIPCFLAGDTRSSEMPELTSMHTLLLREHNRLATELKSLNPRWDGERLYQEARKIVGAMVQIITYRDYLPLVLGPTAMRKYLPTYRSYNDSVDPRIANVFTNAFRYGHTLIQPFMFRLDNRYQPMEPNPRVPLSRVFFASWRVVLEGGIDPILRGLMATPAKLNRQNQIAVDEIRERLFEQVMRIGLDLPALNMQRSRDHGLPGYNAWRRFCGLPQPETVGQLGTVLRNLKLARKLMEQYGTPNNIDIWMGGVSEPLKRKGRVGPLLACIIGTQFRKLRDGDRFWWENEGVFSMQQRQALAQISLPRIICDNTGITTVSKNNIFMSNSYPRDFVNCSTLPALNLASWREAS
Kind of data set: MPO-mediated oligomerization of 2Gd^3+: UV, HPLC, MALDI-MS, relaxivity. The format is biochemical. As to conditions: for degree of polymerization (N) of oligomerized products: MPO/H2O2, MALDI-MS. On the procedure: Myeloperoxidase was purchased from Biodesign Int. and was used as received, activity was measured as described by Klebanoff, S. J.; Waltersdorph, A. M.; Rosen, H.; Methods in Enzymology. Vol. 105, p 399-403.
We incubated 0.6 mL of a solution 10^4M of Gd^3+2 at pH=7.2/25° with 4 units of MPO and an excess of H2O2 for 90 minutes. […] The intensity of these new bands increased for a period of about 90 min, and that 90% of the change could be observed within first 30 min. The reaction was quenched by freezing the mixture in liquid N2. […] However, higher N value species were undetectable.
Four solutions with concentrations ranging from 10^−4 to 10^−3 where separately incubated as above and the T1 value were measured at 0.47T using standard inverse recovery sequence. The fitting of these values, following published procedures, yielded a r1=5.9 mM^−1s^−1. […] For longer incubation times, no linear correlation of T1 from Gd concentration could be obtained due to the precipitation of CA at millimolar concentrations. Lower relaxivity increase (32%) was observed when the activity of the enzyme was lowered to 1 unit.
Further characterization of r1 effects modulated by MPO was accomplished by using a 4×2 well plate array of samples prepared as shown in FIG. 14: Row 1 contained 0.3 mL Gd-DTPA-diSer solutions at pH 7.2; Row 2 included the samples the same concentrations and 4 units of MPO and 2 μL of a 3% of aqueous H2O2. Fitting the T1 values of the wells in row 1 afforded r1 of 4.7 mM^−1s^−1. […] In this case, we observed precipitation of insoluble products during the MRI scan. The fitting of the values measured in other 3 wells, the relaxivity was 5.5 mM^−1s^−1.
Indium-111 labeled bis-5-HT-DTPA was prepared by using transchelation from ^111In-oxiquinoline complex (oxine, Cardinal Health, Cleveland Ohio). To prepare ^111In-bis-5-HT-DTPA, 50 μg of bis-5-HT-DTPA (1 mg/ml) were mixed with 1 mCi ^111In-oxiquinoline solution in 0.7-1.0 ml saline and incubated for 1 hour under argon. Transchelation and purity was controlled by HPLC (Discovery C-18 column, 25×3 mm, Supelco) using 0-55% gradient of acetonitrile in water. Human myeloperoxidase was obtained from BioDesign, Inc., and its activity determined by using the method described by Klebanoff. To determine if the Gd compounds were substrates for human MPO, MPO-mediated oligomerization was monitored by size exclusion HPLC and by measuring ΔT1 on a Bruker Minispec 120 NMR spectrometer using a standard inversion recovery sequence. The degree of oligomerization was determined by mass spectroscopy (MALDI-MS).

A further data set deals with plasma proteins. Kind of data set: Substrate binding to plasma components (Biospin P-6 elution with 111In tracer). The format is in vitro ADME. Conditions: human plasma; eluting experiments. On the procedure:
The follow experiments were performed to determine the effect of MPO-activated substrate oligomerization with plasma proteins to form larger aggregate. Human plasma was extracted from healthy donors by the use of Polymorphprep (Accurate Chemicals) and centrifugation according to the manufacturer's instructions. Aliquots of 3 mM solution of bis-5-HT-DTPA(Gd) was mixed with aliquots of ^111In-bis-5-HT-DTPA as a tracer, with or without human plasma and with and without MPO/H2O2. […] Radioactivity retained in the columns and the eluted material were counted separately in 1480 Wizard gamma counter (Perkin-Elmer) and the fraction of radioactivity bound to proteins was calculated (n=3 independent experiments).

Where only a bound is given, the exact number is not on record here.

Turning to `O=C([O-])CN(CCN(CC(=O)[O-])CC(=O)NCCc1c[nH]c2ccc(O)cc12)CCN(CC(=O)[O-])CC(=O)NCCc1c[nH]c2ccc(O)cc12.[Gd+3]` [2Gd^3+], the “increase of r1 compared with the initial substrate” value at Myeloperoxidase (MPO) (0.47T, 4 units of MPO) is on record as 37%. In addition, the r1 at Myeloperoxidase (MPO) (0.47T, 4 units of MPO, H2O2) is 5.9 mM⁻¹ s⁻¹. On Myeloperoxidase (MPO) (0.47T, enzyme activity lowered to 1 unit), this compound came in with a relaxivity increase of 32%. The “fraction of the UV absorbance change observed within first 30 min” value on Myeloperoxidase (MPO) (10^4M, pH=7.2/25°, 4 units of MPO, excess H2O2) was 90%. The compound also came in with a conversion at Myeloperoxidase (MPO) (HPLC after addition of MPO) of 99.5%. Further, the “degree of polymerization (N) of oligomerized products” value at Myeloperoxidase (MPO) (listed as Gd^3+2) is recorded as 1-4; on Myeloperoxidase (MPO) (listed as bis-5-HT-DTPA(Gd)) it was “up to 5”. Also, at Myeloperoxidase (MPO) (well plate at 1.5T, 4 units of MPO and H2O2, fitting of 3 wells), the relaxivity was 5.5 mM⁻¹ s⁻¹. The “minimum increase of relaxivity” value at Myeloperoxidase (MPO) (well plate at 1.5T, range 10^−4 to 5 10^−4) is listed as at least 17%. Moreover, the “binding of MPO-activated oligomers to plasma proteins compared to the substrate itself” value in the data set on plasma proteins was “over 3 fold”.
